In brackets after ≈: the same amount, converted by molar mass.
Columns and labels:
[1] = test system: ARH-77 cells; test: Cell viability of ARH-77 cells by trypan blue exclusion; assay type: cell-based, human; conditions: XPP 2.5-40 μg/mL
Method: Cell viability was evaluated using the trypan blue exclusion assay. Briefly, 10µL of ARH-77 cells at each testing condition was mixed with 10 µL of trypan blue dye. The mixture was then loaded into a hemocytometer and the viable cells were counted under a microscope. The percentage of viable cells was calculated as follows: Viable cells (%) = (total number of viable cells) / (total number of cells) × 100.

[2] = test system: naïve C3H/HeJ mice; test: Sub-chronic toxicity assay; assay type: in vivo
Method: For acute toxicity analysis, naïve C3H/HeJ mice were fed with 4 mg of XPP per mouse, which is10 times of the daily dose. […] In the sub-chronic toxicity assay, naïve C3H/HeJ mice were fed with 5 times their daily therapeutic dose (2 mg/day) for 14 days. Control group mice (sham) were fed with water. Blood samples were collected at the end of each experiment. Blood urea nitrogen (BUN) and alanine aminotransferase (ALT) measurements for the evaluation of kidney and liver functions respectively and complete blood count (CBC) testing were performed by ALX laboratories, NY.

[3] = test system: IgE production by U266 cells; test: IgE production by human myeloma U266 cells, IgE ELISA of supernatants; assay type: cell-based
Method: The human myeloma cell line (U266), purchased from ATCC (American Type Culture Collection; Rockville, MD), has been used to test different herb extracts and purified compounds for their IgE inhibitory effects ([31]). 2×10^5 cells/mL of cells were cultured at 37°C under 5% CO2 in complete media containing RPMI 1640 medium supplemented, 10% FBS, 1 mM sodium pyruvate, 1×10^-5 M β-ME and 0.5% penicillin-streptomycin. XPP at 0, 2.5, 5, 10, 20 and 40 μg/mL were added at day 0. After 6 days, supernatants were harvested and IgE levels were measured by using an ELISA Kit (Mabtech Inc, OH). Briefly, samples and standards were added into prewashed 96-well plate coated with capture monoclonal antibodies (mAbs). After 2-hour incubation at room temperature, plate was washed 5 times and incubated with detection mAb for 1 hour. The plate was then washed for 5 times and incubated with streptavidin-HRP for 1hour at room temperature. The plate was then washed and developed with TMB substrate for 15 min. The optical density was measured using ELISA reader at 450nm. IgE concentrations were calculated based on the standard curve.
S Figure 2. The IgE inhibitory effect of five fractions from R.cordifolia. U266 cells (2 × 10^5 cells/mL) were co-incubated with each fraction at the concentration of 10 μg/mL for 6 days. The supernatants were harvested and IgE levels were measured by ELISA. The inhibition percentage was calculated using the equation “% inhibition = (1- IgE level each fr / IgE level non-treated ) x 100%”.

[4] = test system: IL-4 promoter; test: IL-4 promoter DNA methylation (CpG-393) in splenocytes of treated mice, bisulfite pyrosequencing; assay type: in vivo, C3H/HeJ mice; conditions: model #2, vs sham
Description: Genomic DNA was isolated from mouse splenocytes collected from orally sensitized mouse model#2 using Qiagen mini DNA/RNA extraction kit (Qiagen, Valencia, CA). Isolated DNA was bisulfite-modified using an Epitect plus DNA Bisulfite kit (Qiagen) following the manufacturer’s instructions. Bisulfite converted DNA was then amplified with the IL-4 primers listed below by PCR. The PCR products were subsequently purified and pyrosequenced using sequencing primers on a Pyromark Q24 system (Qiagen) as described previously ([38]). Primers for IL-4; Fwd: […]; Rev-Biotin-[…]. Sequencing (CpG -393) […].

[5] = test system: splenocytes (SPCs) and mesenteric lymph node (MLN) cells; test: Cytokines in CPE-stimulated splenocyte and MLN cell cultures from treated mice (Model #2), ELISA; assay type: in vivo, C3H/HeJ mice; conditions: model #2, CPE stimulation, vs sham
Method: Mice were sacrificed at the end of each experiment. The splenocytes (SPCs) and mesenteric lymph node (MLN) cells of each mouse was collected as previously described ([37]). Cells (4 x10^6/well/mL) were cultured in 24 well plates in the presence or absence of CPE (200 µg/mL). After 72 hrs of incubation at 37°C under 5% CO2, supernatants were collected. Cytokine levels were measured using ELISA kits in triplicate according to the manufacturer’s instructions (BD Biosciences, San Jose, CA and R&D systems, Minneapolis, MN).

[6] = test system: U266 cells; test: RT-PCR of candidate genes in XPP-treated U266 cells; assay type: cell-based, human
Method: RT-PCR analysis of genes related to Cell cycle, B cell differentiation, and IgE production was performed by QuantStudio 5 real-time PCR system (Thermo Fisher, Waltham, MA). For each PCR reaction, 12.5 μL maxima SYBR Green/ROX qPCR Master Mix 2x (Thermo Fisher, Waltham, MA) was mixed with 1.8 μL of 0.3 μM target primers and 300 ng of template DNA to make the total volume as 25 μL. The PCR procedure was set as […] 25°C for 5 min, 42°C for 60 min and 70°C for 15 min. GAPDH was used as the housekeeping gene. The Delta Ct values for each gene were calculated by normalizing the Ct values with the housekeeping gene. The relative fold change in mRNA expression between different groups was calculated and expressed as 2^−ΔΔCT. The primer sequence used are shown in Supplementary Table 1 .

[7] = test system: U266 cells; test: Cell viability of U266 cells by trypan blue exclusion; assay type: cell-based, human; conditions: all concentrations tested (2.5-40 µg/mL)
Method: Cell viability was evaluated using a trypan blue exclusion as previously described ([31]). Briefly, a 10µL of cells suspension from each culture was mixed with equal volume of trypan blue dye. The mixture was loaded into a hemocytometer and cells were counted under a microscope. The percentage of viable cells was calculated as follows: Viable cells (%) = (total number of viable cells)/(total number of cells) × 100.

[8] = test system: IgG production by ARH-77 cells; test: IgG production by ARH-77 cells, IgG ELISA; assay type: cell-based, human; conditions: XPP 2.5, 5, 10, 20, and 40 μg/mL
Method: ARH-77, a human IgG-producing myeloma cell line, was purchased from ATCC (American Type Culture Collection; Manassas, VA). The culture media contains RPMI 1640 medium supplemented, 10% FBS, 1 mM sodium pyruvate, 1×10^-5 M β-ME and 0.5% penicillin-streptomycin. Cells were cultured at 37°C under 5% CO2. […] After 3 days, supernatants were harvested and IgG levels were determined using an ELISA Kit (Mabtech Inc, OH).

With `O=C1c2ccccc2C(=O)c2c(O)cc(O)cc21` [XPP, xanthopurpurin] the “Toxicity / cell viability of ARH-77 cells” value [1] was “No toxicity was observed”, the “CBC: white blood cell, red blood cell, hemoglobin and platelet levels vs control group and normal range” value ([2]; mouse, in vivo) was “within the normal range and similar to the control group” and the “Deaths, abnormal behavior or diarrhea” value ([2]; sub-chronic, 5 times (2 mg/day) for 14 consecutive days) was “No deaths and abnormal behavior or diarrhea were observed either”. For the same compound, the Mortality ([2]; sub-chronic, 5x dose (2 mg/day/mouse) for 14 days) was 0.00%, the IC50 ([3]; Homo sapiens, U-266, 144 h, 6 days culture, IgE ELISA) was 9 µg/mL (≈ 37.5 µM) and the “XPP concentration at which complete inhibition of IgE production was observed” value ([3]; U266 cells, 6 days) was 40 µg/mL. For the same compound, the “XPP concentration at which inhibition of IgE was first observed” value ([3]; U266 cells, 6 days) was 2.5 µg/mL, the “XPP concentration reaching statistically significant inhibition of IgE” value ([3]; U266 cells, 6 days, p < 0.01) was 10 µg/mL and the “IgE production by U266 cells” value ([3]; XPP 2.5-40 µg/mL, 6 days) was “inhibited the IgE production by U266 cells in a dose-dependent manner”. For the same compound, the “Percentages of CpG methylation for CpG-393 of IL-4 promoter” value [4] was “showed an increase”, the “IL-4 level in MLN cultures” value ([5]; 72 hrs) was “significantly inhibited IL-4 level” and the “IL-4 level in splenocyte cultures” value ([5]; 72 hrs) was “significantly inhibited IL-4 level”. The “IFN-γ production in MLN cultures” value [5] was “no significant differences”, the “IFN-γ production in SPC cultures” value [5] was “no significant differences” and the “IL-10 production in MLN cultures” value [5] was “no significant differences”. For the same compound, the “IL-10 production in SPC cultures” value [5] was “no significant differences”, the CCND1 gene expression ([6]; XPP 20 μg/mL, p < 0.001) was “significantly reduced” and the IL6R gene expression ([6]; XPP 20 μg/mL, p < 0.001) was “significantly reduced”. For the same compound, the SCD1 gene expression ([6]; XPP 20 μg/mL, p < 0.001) was “significantly reduced”, the DUSP4 gene expression ([6]; XPP 20 μg/mL, p < 0.01) was “significantly increased” and the PTPRC gene expression ([6]; XPP 20 μg/mL, p < 0.01) was “significantly increased”. The ETS1 gene expression ([6]; increasing XPP concentration) was “upregulation trend with the increasing concentration of XPP, but no significant value was observed”, the “Toxicity / cell viability of U266 cells (trypan blue)” value [7] was “No toxicity was observed at any concentration tested” and the “IgG production by ARH-77 cells” value [8] was “didn’t show significant inhibition”.

From PMC10876879, “Sustained silencing peanut allergy by xanthopurpurin is associated with suppression of peripheral and bone marrow IgE-producing B cell” (Frontiers in Immunology, 2024)
